Assay results reported in the supplement of paper PMC10307832.

Key:
Assay in all cases: relative viability (nuclei count vs DMSO), 5 days (fraction); higher = more cells survive
Selisistat = compound: C1CC(C2=C(C1)C3=C(N2)C=CC(=C3)Cl)C(=O)N [Selisistat]
Method in brief: (§1)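 Viability was read as treated-well nuclei divided by vehicle-well nuclei, using the median across plates. Lung cancer cell lines in 1536-well plates were kept overnight at 37 °C, pinned with five √10-spaced library-drug doses, and after 5 days were Hoechst-stained, imaged at 4× and counted in MetaXpress. Plates passed only with control CV below 25% and at least one doubling.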

Serdemetan = compound: c1ccc2c(CCNc3ccc(Nc4ccncc4)cc3)c[nH]c2c1 [Serdemetan]
Method in brief: as §1

Serdemetan + Pemetrexed = compound: c1ccc2c(CCNc3ccc(Nc4ccncc4)cc3)c[nH]c2c1 [Serdemetan] + Nc1nc2[nH]cc(CCc3ccc(C(=O)N[C@@H](CCC(=O)O)C(=O)O)cc3)c2c(=O)[nH]1 [Pemetrexed] (partner 0.2 µM)
Method in brief: (§2)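 Cells from lung cancer lines were seeded into 1536-well plates and, one day later, dosed by pin tool. Treatments were either a single drug or a fixed dose of an anchor drug with five library-drug doses (not always all listed) in √10 steps. After 5 days, nuclei were stained in a one-step fixation (final 0.05% Triton X-100, 1% formaldehyde, 1 ug/ml Hoechst) and counted on 4× images, and relative viability is the treated-to-vehicle nuclei ratio, as the median of duplicate plates.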

Selisistat + Alpelisib = compound: C1CC(C2=C(C1)C3=C(N2)C=CC(=C3)Cl)C(=O)N [Selisistat] + Cc1nc(NC(=O)N2CCC[C@H]2C(N)=O)sc1-c1ccnc(C(C)(C)C(F)(F)F)c1 [Alpelisib] (partner 2 µM)
Method in brief: as §2

Row | Cell Line | relative viability (Selisistat; 0.4 µM) | relative viability (Selisistat; 1.265 µM) | relative viability (Selisistat; 4 µM) | relative viability (Selisistat; 12.65 µM) | relative viability (Selisistat; 40 µM) | relative viability (Serdemetan; 0.04 µM) | relative viability (Serdemetan; 0.1265 µM) | relative viability (Serdemetan; 0.4 µM) | relative viability (Serdemetan; 1.265 µM) | relative viability (Serdemetan; 4 µM) | relative viability (Serdemetan + Pemetrexed; first compound 0.04 µM) | relative viability (Serdemetan + Pemetrexed; first compound 0.1265 µM) | relative viability (Serdemetan + Pemetrexed; first compound 0.4 µM) | relative viability (Serdemetan + Pemetrexed; first compound 1.265 µM) | relative viability (Serdemetan + Pemetrexed; first compound 4 µM) | relative viability (Selisistat + Alpelisib; first compound 0.4 µM) | relative viability (Selisistat + Alpelisib; first compound 1.265 µM) | relative viability (Selisistat + Alpelisib; first compound 4 µM) | relative viability (Selisistat + Alpelisib; first compound 12.65 µM) | relative viability (Selisistat + Alpelisib; first compound 40 µM)
1 | 201T | 1.02 | 0.996 | 0.875 | 1.01 | 0.996 | 0.983 | 0.987 | 0.937 | 0.919 | 0.919 | 0.306 | 0.287 | 0.29 | 0.332 | 0.353 | 1.04 | 0.986 | 0.981 | 1.03 | 1.02
2 | A549 | 1.05 | 0.901 | 0.952 | 0.898 | 0.982 | 0.907 | 0.938 | 0.932 | 0.778 | 0.59 |  |  |  |  |  | 0.976 | 0.841 | 0.652 | 0.843 | 0.901
3 | A-427 | 1.03 | 0.984 | 0.845 | 0.971 | 0.944 | 0.954 | 1 | 1.03 | 0.762 | 0.825 | 0.958 | 0.927 | 1.04 | 0.698 | 0.854 | 1.08 | 1.09 | 1.02 | 1.14 | 1.12
4 | ABC-1 | 0.897 | 0.869 | 0.647 | 0.772 | 0.819 | 0.948 | 0.923 | 0.994 | 0.603 | 0.56 |  |  |  |  |  | 0.977 | 0.972 | 0.872 | 1.15 | 0.921
5 | BEN | 1.01 | 0.967 | 0.738 | 0.878 | 0.9 | 0.996 | 0.924 | 1.02 | 0.686 | 0.882 | 0.717 | 0.614 | 0.849 | 0.955 | 0.634 | 0.953 | 0.986 | 0.818 | 0.9 | 0.884
6 | CAL-12T | 0.964 | 0.987 | 0.747 | 0.881 | 1 | 0.967 | 1.05 | 1.01 | 0.932 | 0.927 | 1.17 | 1.19 | 0.951 | 1.19 | 1.05 | 1.29 | 1.07 | 1.14 | 1.16 | 1.19
7 | Calu-6 | 1.03 | 0.965 | 0.99 | 0.976 | 1 | 1 | 1.02 | 1.02 | 0.875 | 0.677 |  |  |  |  |  | 1.02 | 0.896 | 1.01 | 0.841 | 0.873
8 | ChaGo-K-1 | 1.02 | 0.942 | 0.8 | 0.866 | 0.97 | 0.964 | 0.95 | 0.873 | 0.624 | 0.529 | 0.277 | 0.261 | 0.372 | 0.257 | 0.254 |  |  |  |  | 
9 | EBC-1 | 0.994 | 0.963 | 1.01 | 0.956 | 0.954 | 0.903 | 0.931 | 0.943 | 0.857 | 0.722 |  |  |  |  |  | 0.982 | 0.891 | 0.806 | 0.807 | 0.911
10 | IA-LM | 0.945 | 0.959 | 0.918 | 0.9 | 1.01 | 0.942 | 0.963 | 0.956 | 0.711 | 0.505 |  |  |  |  |  | 0.882 | 0.79 | 0.545 | 0.74 | 0.696
11 | NCI-H522 | 0.899 | 0.964 | 0.763 | 0.806 | 0.885 | 1.03 | 0.938 | 0.943 | 0.605 | 1.09 | 0.971 | 0.857 | 1.04 | 0.933 | 0.98 |  |  |  |  | 
12 | NCI-H727 | 0.95 | 1 |  | 0.863 | 0.895 | 0.936 | 0.808 | 1.07 | 0.669 | 0.555 |  |  |  |  |  | 0.553 | 0.714 |  |  | 0.458
13 | NCI-H1299 | 1.05 | 1.03 | 1.04 | 1.02 | 1.01 | 1.01 | 1 | 0.975 | 0.895 | 0.754 |  |  |  |  |  | 1.02 | 1.05 | 1.14 | 1.03 | 1.03
14 | NCI-H1648 | 0.769 | 0.787 | 1.04 | 1.19 | 1.19 |  | 1.07 | 0.924 | 0.472 | 0.358 |  | 0.714 | 0.624 | 0.554 | 0.476 |  |  |  |  | 
15 | NCI-H1650 | 0.823 | 0.844 | 0.829 | 0.905 | 0.911 | 0.916 | 0.892 | 0.788 | 0.759 | 0.688 | 0.374 | 0.328 | 0.371 | 0.343 | 0.264 |  |  |  |  | 
16 | NCI-H1703 | 0.894 | 0.834 | 0.9 | 0.853 | 0.848 | 1.08 | 0.84 | 0.882 | 0.764 | 0.71 |  |  |  |  |  | 0.28 | 0.385 | 0.265 | 0.336 | 0.397
17 | NCI-H2342 | 1.06 | 0.881 | 0.908 | 0.94 | 0.928 | 1.17 | 1.13 | 1.08 | 0.84 | 0.69 | 0.789 | 0.752 | 0.835 | 0.516 | 0.641 |  |  |  |  | 
18 | SW 900 | 1 | 0.801 | 0.656 | 0.846 | 0.858 | 0.876 | 0.941 | 0.926 | 0.547 | 0.666 | 0.461 | 0.51 | 0.485 | 0.324 | 0.41 |  |  |  |  | 
